Test results reported in patent US7202261B2, “Calcilytic compounds” (NPS Pharmaceuticals, Inc., priority 1996, dated 2007).
pIC50: −log10 of the molar value. Structures can show the parent of a compound that is named as a salt. Where two headings read alike, the source gives them in different places.

Biological target: T1, human calcium receptor (Homo sapiens, UniProt P41180)
T1 construct: expressed in transfected cells
T1 sequence (P41180 20-1078): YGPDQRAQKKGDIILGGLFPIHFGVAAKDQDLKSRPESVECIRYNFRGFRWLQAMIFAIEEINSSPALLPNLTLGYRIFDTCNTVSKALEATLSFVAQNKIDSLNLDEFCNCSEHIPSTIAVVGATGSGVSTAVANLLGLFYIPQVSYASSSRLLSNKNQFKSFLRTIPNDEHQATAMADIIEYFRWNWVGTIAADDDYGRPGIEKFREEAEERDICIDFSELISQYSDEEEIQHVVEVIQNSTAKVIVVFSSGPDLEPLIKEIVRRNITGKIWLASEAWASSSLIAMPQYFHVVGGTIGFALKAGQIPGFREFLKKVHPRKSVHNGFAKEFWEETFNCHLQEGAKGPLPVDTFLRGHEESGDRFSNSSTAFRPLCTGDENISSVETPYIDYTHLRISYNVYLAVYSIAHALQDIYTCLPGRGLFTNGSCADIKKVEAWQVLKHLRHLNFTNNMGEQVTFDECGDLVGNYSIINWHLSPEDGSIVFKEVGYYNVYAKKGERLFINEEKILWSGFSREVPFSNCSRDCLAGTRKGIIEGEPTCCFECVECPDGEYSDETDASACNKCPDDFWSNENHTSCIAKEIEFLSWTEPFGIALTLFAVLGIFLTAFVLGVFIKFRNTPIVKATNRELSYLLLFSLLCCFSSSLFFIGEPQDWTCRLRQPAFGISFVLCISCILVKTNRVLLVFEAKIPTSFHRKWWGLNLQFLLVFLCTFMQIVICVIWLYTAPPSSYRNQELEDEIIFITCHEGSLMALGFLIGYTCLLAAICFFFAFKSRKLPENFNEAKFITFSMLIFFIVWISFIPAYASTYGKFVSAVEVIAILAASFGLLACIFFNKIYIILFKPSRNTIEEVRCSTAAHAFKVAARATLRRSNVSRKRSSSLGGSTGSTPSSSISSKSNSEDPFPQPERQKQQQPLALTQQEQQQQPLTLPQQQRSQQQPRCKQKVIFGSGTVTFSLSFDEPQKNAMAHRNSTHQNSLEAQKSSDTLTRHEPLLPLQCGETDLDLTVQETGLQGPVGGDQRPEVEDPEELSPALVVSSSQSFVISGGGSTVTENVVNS
Experiment: Calcium Receptor Inhibitor Assay
Type: cell-based
Protocol: This example illustrates the use of the Calcium Receptor Inhibitor Assay. […] Res. 10 Suppl. […] Intracellular Ca^2+ was measured using fluo-3, a fluorescent calcium indicator.
The procedure was as follows:
1. Cells were maintained in T-150 flasks in selection media (DMEM supplemented with 10% fetal bovine serum and 200 μg/mL hygromycin B), under 5% CO2:95% air at 37° C. and were grown up to 90% confluency.
2. The medium was decanted and the cell monolayer was washed twice with phosphate-buffered saline (PBS) kept at 37° C. After the second wash, 6 mL of 0.02% EDTA in PBS was added and incubated for 4 minutes at 37° C. Following the incubation, cells were dispersed by gentle agitation.
3. Cells from 2 or 3 flasks were pooled and pelleted (100×g). The cellular pellet was resuspended in […] of SPF-PCB+ and pelleted again by centrifugation. This washing was done twice.
SPF-PCB was made up and stored at 4° C. On the day of use, SPF-PCB was supplemented with 1 mg/mL of D-glucose and 1 mM CaCl2 and then split into two fractions. To one fraction, bovine serum albumin (BSA; fraction V, ICN) was added at 5 mg/mL (SPF-PCB+). This buffer was used for washing, loading and maintaining the cells. The BSA-free fraction was used for diluting the cells in the cuvette for measurements of fluorescence.
5. Following the incubation period, the cells were pelleted by centrifugation. The resulting pellet was washed with SPF-PCB+. After this washing, cells were resuspended in SPF-PCB+ at a density of 1–2×10^6 cells/mL.
6. For recording fluorescent signals, 300 μL of cell suspension were diluted in 1.2 mL of SPF buffer containing 1 mM CaCl2 and 1 mg/mL of D-glucose. Measurements of fluorescence were performed at 37° C. with constant stirring using a spectrofluorimeter. […] To calibrate fluorescence signals, digitonin (5 mg/mL in ethanol) was added to obtain Fmax, and the apparent Fmin was determined by adding Tris-EGTA (2.5 M Tris-Base, 0.3 M EGTA).
7. To determine the potential calcilytic activity of test compounds, cells were incubated with test compound (or vehicle as a control) for 90 seconds before increasing the concentration of extracellular Ca^2+ from 1 to 2 mM. Calcilytic compounds were detected by their ability to block, in a concentration-dependent manner, increases in the concentration of intracellular Ca^2+ elicited by extracellular Ca^2+.

[1] = HEK 293 4.0–7 cells stably expressing the human calcium receptor, fluo-3, read-out: IC50 for blocking increases of intracellular Ca2+ elicited by extracellular Ca2+

Compound	pIC50 [1]	pIC50
COc1ccc(CC(C)(C)NC[C@@H](O)COc2ccc(C(C)(C)C)cc2)cc1 (racemic) [Compound 20, (R) and (S)—N-[2-Hydroxy-3-(4-t-butylphenoxy)propyl]-1,1-dimethyl-2-(4-methoxyphenyl)ethylamine Hydrochloride]	> 6.00	–
COc1ccc(CC(C)(C)NCC(O)CCc2cccc3ccccc23)cc1 (racemic) [Compound 162, (R/S)-1-[[2,2-dimethyl-(4′methoxy)phenethyl]]amino-2-hydroxy-4(1′-naphthyl)-butane]	> 5.00	–
COc1ccc(CC(C)(C)NCC(O)CCc2cccc(Cl)c2Cl)cc1 (racemic) [Compound 163]	–	> 6.00
COc1ccc(CC(C)(C)NCC(O)CCCC[N+](=O)[O-])cc1 (racemic) [Compound 164, (R/S)-1-nitro-5-hydroxy-6-[1,1-dimethyl-2-(4-methoxyphenyl)]hexane]	–	> 4.30
COc1ccc(CC(C)(C)NC[C@@H](O)COc2cccc3ccccc23)cc1 (single isomer, unassigned) [Compound 105, Hydrochloride]	> 6.00	–
COc1ccc(CC(C)(C)NC[C@H](O)COc2cccc3ccccc23)cc1 (single isomer, unassigned) [Compound 106, Hydrochloride]	> 6.00	–
COc1ccc(CC(C)(C)NCC(O)COc2cccc3[nH]c(O)nc23)cc1 (stereo not shown) [Compound 1]	> 4.30	–
CC(C)(Cc1ccc(F)cc1)NCC(O)COc1cccc2ccccc12 (stereo not shown) [Compound 2, N-[2-Hydroxy-3-(1-naphthoxy)propyl]-1,1-dimethyl-2-(4-fluorophenyl)ethylamine Hydrochloride]	> 5.00	–
COc1ccc(CC(C)(C)NCC(O)COc2ccccc2)cc1 (stereo not shown) [Compound 3, N-(2-Hydroxy-3-phenoxypropyl)-1,1-dimethyl-2-(4-methoxyphenyl)ethylamine Hydrochloride]	> 5.00	–
COc1ccc(CC(C)(C)NCC(O)COc2ccc(Cl)cc2)cc1 (stereo not shown) [Compound 5, N-[2-Hydroxy-3-(4-chlorophenoxy)propyl]-1,1-dimethyl-2-(4-methoxyphenylethylamine Hydrochloride]	> 6.00	–
COc1ccc(CC(C)(C)NCC(O)COc2ccc(C(C)(C)C)cc2)cc1 (stereo not shown) [Compound 6, N-[2-Hydroxy-3-(4-t-butylphenoxy)propyl]-1,1-dimethyl-2-(4-methoxyphenyl)ethylamine Hydrochloride]	> 6.00	–
COc1ccc(CC(C)(C)NCC(O)COc2ccc(OC)cc2)cc1 (stereo not shown) [Compound 7, N-[2-Hydroxy-3-(4-methoxyphenoxy)propyl]-1,1-dimethyl-2-(4-methoxyphenyl)ethylamine Hydrochloride]	> 5.00	–
COc1ccc(CC(C)(C)NCC(O)COc2ccccc2C)cc1 (stereo not shown) [Compound 8, N-[2-Hydroxy-3-(2-methylphenoxy)propyl]-1,1-dimethyl-2-(4-methoxyphenyl)ethylamine Hydrochloride]	> 5.00	–
COc1ccc(CC(C)(C)NCC(O)COc2cccc3[nH]c(C(N)=O)cc23)cc1 (stereo not shown) [Compound 9, N-[2-Hydroxy-3-(4-(2-carboxamido)indoloxy)propyl]-1,1-dimethyl-2-(4-methoxyphenyl)ethylamine Hydrochloride]	> 4.30	–
COc1ccc(CC(C)(C)NCCCOc2ccccc2)cc1 [Compound 17, N-(3-Phenoxypropyl)-1,1-dimethyl-2-(4-methoxyphenyl)ethylamine Hydrochloride]	> 4.30	–
COc1ccc(CC(C)(C)NCC(O)COc2cccc3ccccc23)cc1 (stereo not shown) [Compound 19, N-[2-Hydroxy-3-(1-naphthoxy)propyl]-1,1-dimethyl-2-(4-methoxyphenyl)ethylamine Hydrochloride]	> 6.00	–

Compound	pIC50 [1]	pIC50
COc1ccc(CC(C)(C)NCCCc2ccccc2)cc1 [Compound 22, N-(3-phenylpropyl)-1,1-dimethyl-2(4-methoxyphenyl)ethylamine]	–	< 4.30
COc1ccc(CC(C)(C)NCCCCc2ccccc2)cc1 [Compound 24, N-(4-phenylbutyl)-1,1-dimethyl-2-(4-methoxyphenyl)ethylamine]	–	< 4.30
COc1ccc(CC(C)(C)NCC(O)COC(C)(C)C)cc1 (stereo not shown) [Compound 25, N-(2-Hydroxy-3-t-butoxypropyl)-1,1-dimethyl-2-(4-methoxyphenyl)ethylamine]	–	> 4.30
CCCCOCC(O)CNC(C)(C)Cc1ccc(OC)cc1 (stereo not shown) [Compound 26, N-(2-Hydroxy-3-butoxypropyl)-1,1-dimethyl-2-(4-methoxyphenyl)ethylamine]	–	> 5.00
COc1ccc(CC(C)(C)NCC(O)COC(C)C)cc1 (stereo not shown) [Compound 27, N-(2-Hydroxy-3-isoproproxypropyl)-1,1-dimethyl-2-(4-methoxyphenyl)ethylamine]	–	> 5.00
CCCCC(CC)COCC(O)CNC(C)(C)Cc1ccc(OC)cc1 (stereo not shown) [Compound 28, N-[2-Hydroxy-3-(2-ethyl)hexanoxypropyl]-1,1-dimethyl-2-(4-methoxyphenyl)ethylamine]	–	> 6.00
C=CCOCC(O)CNC(C)(C)Cc1ccc(OC)cc1 (stereo not shown) [Compound 29, N-(2-Hydroxy-3-allyloxypropyl)-1,1-dimethyl-2-(4-methoxyphenyl)ethylamine]	–	> 4.30
COc1ccc(CC(C)(C)NCc2ccccc2)cc1 [Compound 34, N-(Benzyl)-1,1-dimethyl-2-(4-methoxyphenyl)ethylamine]	–	< 4.30
COc1ccc(CC(C)(C)NCC(O)COc2ccc3ccccc3c2)cc1 (stereo not shown) [Compound 35, N-[2-Hydroxy-3-(2-naphthoxy)propyl]-1,1-dimethyl-2-(4-methoxyphenyl)ethylamine Hydrochloride]	> 5.00	–
COc1ccc(CC(C)(C)NCCCCOc2ccccc2)cc1 [Compound 36, N-(4-phenoxybutyl)-1,1-dimethyl-2-(4-methoxyphenyl)ethylamine]	< 4.30	–
COc1ccc(CC(C)(C)NCC(O)Cc2ccccc2)cc1 (stereo not shown) [Compound 37, N-(2-Hydroxy-3-phenylpropyl)-1,1-dimethyl-2-(4-methoxyphenyl)ethylamine Hydrochloride]	–	> 5.00
COc1ccc(CC(C)(C)NCC(O)COc2cccc(F)c2)cc1 (stereo not shown) [Compound 39, N-[2-Hydroxy-3-(3-fluorophenoxy)propyl]-1,1-dimethyl-2-(4-methoxyphenyl)ethylamine Hydrochloride]	> 5.00	–
COc1ccc(CC(C)(C)NCC(O)COc2ccccc2Cl)cc1 (stereo not shown) [Compound 40, N-[2-Hydroxy-3-(2-chlorophenoxy)propyl]-1,1-dimethyl-2-(4-methoxyphenyl)ethylamine Hydrochloride]	> 6.00	–
COc1ccc(CC(C)(C)NCC(O)COc2ccccc2F)cc1 (stereo not shown) [Compound 41, N-[2-Hydroxy-3-(2-fluorophenoxy)propyl]-1.1-dimethyl-2-(4-methoxyphenyl)ethylamine Hydrochloride]	> 5.00	–
COc1ccc(CC(C)(C)NCCCOc2cccc3ccccc23)cc1 [Compound 42, N-(3-(1-napthoxy)propyl)-1,1-dimethyl-2-(4-methoxyphenyl)]	> 4.30	–
